Assay results from PubChem BioAssay (NCI).
Values joined by “and” are separate entries in the source; they are usually repeats but may differ in a detail not shown here. Identical values can stand only once.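 These data come from cells grown in 96-well plates and exposed to compound for 48 hours at five concentrations. Here, GI50 denotes the concentration required for 50% inhibition of growth. TGI is the concentration that stops growth completely.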

How the values were obtained:
Assay in all cases: inhibition of tumour cell growth, NCI panel, 48 h
HCT-116 colon = tested on: HCT-116 colon
HT29 colon = tested on: HT29 colon
RXF 393 renal = tested on: RXF 393 renal
SW-620 colon = tested on: SW-620 colon
IGROV1 ovarian = tested on: IGROV1 ovarian
NCI-H226 lung = tested on: NCI-H226 lung
SNB-75 CNS = tested on: SNB-75 CNS
HS 578T breast = tested on: HS 578T breast
MDA-MB-231 breast = tested on: MDA-MB-231 breast
MOLT-4 leukemia = tested on: MOLT-4 leukemia

SMILES	GI50 (HCT-116 colon)	TGI (HCT-116 colon)	GI50 (HT29 colon)	TGI (HT29 colon)	GI50 (RXF 393 renal)	TGI (RXF 393 renal)	GI50 (SW-620 colon)	TGI (SW-620 colon)	GI50 (IGROV1 ovarian)	TGI (IGROV1 ovarian)	GI50 (NCI-H226 lung)	TGI (NCI-H226 lung)	GI50 (SNB-75 CNS)	TGI (SNB-75 CNS)	GI50 (HS 578T breast)	TGI (HS 578T breast)	GI50 (MDA-MB-231 breast)	TGI (MDA-MB-231 breast)	GI50 (MOLT-4 leukemia)	TGI (MOLT-4 leukemia)
COc1ccc(CC(NC(=O)[C@H](C)NC(=O)CN2CCOCC2)C(=O)N[C@@H](Cc2ccccc2)C(=O)[C@@]2(C)CO2)cc1 (stereo partly specified)	0.181 µM	0.49 µM	0.339 µM	> 33.9 µM	0.237 µM	0.658 µM	0.216 µM	0.734 µM	0.409 µM	7.3 µM	0.246 µM	0.725 µM	0.175 µM	0.427 µM	0.286 µM	2.12 µM	0.24 µM	1.1 µM	0.0572 µM	
O=C(Nc1ccc(Cl)cc1)c1cc(S(=O)(=O)Nc2nnc(-c3ccccc3)c(-c3ccccc3)n2)c(SCc2ccccc2)cc1Cl	19.8 µM	46.5 µM	28.3 µM	> 82 µM	0.896 µM	> 57.7 µM	38.1 µM	> 100 µM	33.6 µM	> 95.4 µM	27.7 µM	> 70.2 µM			20.6 µM	71.1 µM	19.3 µM	> 56.2 µM	17.4 µM	> 60.4 µM
COc1cc(-c2cc(/C=C3\C(=O)Nc4ccccc43)[nH]n2)cc(OC)c1OC	2.74 µM	11.1 µM	3.15 µM	17.7 µM	8.83 µM	22.5 µM	3.33 µM	18.9 µM	3.14 µM	14.8 µM	2.43 µM	15.5 µM	1.18 µM	10 µM	5.43 µM	62.8 µM	4.07 µM	27.7 µM	2.45 µM	6.71 µM
CCN(CC)CCOc1ccc2c(c1)C(=O)c1cc(OCCN(CC)CC)ccc1-2	3.45 µM	15.2 µM	2.58 µM	10.4 µM	10.2 µM	24 µM	4.04 µM	20.6 µM	6.65 µM	43.2 µM	11.7 µM	34.2 µM	12.2 µM	24.9 µM	13.7 µM	38 µM	10.4 µM	33.8 µM	5.27 µM	23.9 µM
CC1SC(c2c(Cl)cccc2Cl)N(NC(=O)C(O)c2ccccc2)C1=O (stereo unspecified)	56 µM	> 100 µM	> 100 µM	> 100 µM	93.2 µM	> 100 µM	> 100 µM	> 100 µM	62.9 µM	> 100 µM	> 100 µM	> 100 µM	46.9 µM	> 100 µM	> 100 µM	> 100 µM	31.6 µM	> 100 µM	> 100 µM	> 100 µM
O=S(=O)(O)/C(=C\c1ccccc1)c1ccccc1 (tested in a mixture with another compound)		> 100 µM		> 100 µM		> 100 µM		> 100 µM		> 100 µM		> 100 µM		> 100 µM		> 100 µM		> 100 µM		> 100 µM
COC(=O)C1(C2CC/C(C)=C/CC/C(C)=C/CC[C@@]3(C)O[C@@H]3C2)CC1 (stereo partly specified)	33 µM	> 100 µM	68.1 µM	> 100 µM	> 38.2 µM	> 100 µM	40 µM	> 100 µM	30.3 µM	> 72 µM	> 72.2 µM	> 100 µM	> 100 µM	> 100 µM	> 91.2 µM	> 100 µM	> 48.6 µM	> 74.7 µM	29.3 µM	> 100 µM
NCCP(=O)(O)O		> 100 µM		> 100 µM		> 100 µM		> 100 µM		> 100 µM		> 100 µM		> 100 µM		> 100 µM		> 100 µM		> 100 µM
O=C(O)c1cscc1Cc1cccs1		> 100 µM		> 100 µM		> 100 µM		> 100 µM		> 100 µM		> 100 µM		> 100 µM		> 100 µM		> 100 µM		> 100 µM
C1=C(c2ccccc2)C(c2ccc(OCCN3CCCCC3)cc2)Oc2ccccc21 (stereo unspecified)	1.7 µM	3.07 µM	1.76 µM	3.86 µM	1.61 µM	3.11 µM	1.83 µM	3.62 µM	2.07 µM	5.07 µM	4.08 µM	16.7 µM	1.6 µM	3.44 µM	2.18 µM	5.23 µM	1.86 µM	3.51 µM	2.37 µM	5.84 µM
COc1ccc2c(c1)cn1c3ccc(O)cc3[nH]c(=O)c21	0.0567 µM	1.61 µM	0.411 µM	2.18 µM	0.0592 µM	0.627 µM	0.043 µM	2.55 µM	0.338 µM	4.77 µM	0.181 µM	6.92 µM	0.227 µM	13.6 µM	0.481 µM	25.2 µM	0.469 µM	2.47 µM	0.316 µM	6.95 µM
O=S(=O)(NCCNc1cc(-c2cn(-c3ccccc3)nc2-c2cccc(O)c2)ccn1)c1ccc(Cl)cc1	2.69 µM	11.4 µM	2.24 µM	5.21 µM	2.86 µM	10.1 µM	3.69 µM	18.9 µM	3.82 µM	24.2 µM	4.02 µM	21.2 µM	3.28 µM	20.4 µM	3 µM	> 100 µM	2.14 µM	5.56 µM	2.51 µM	7.37 µM
C/C1=C\C/C=C(\C)[C@H]2CC(CC/C(C)=C/CC1)[C@](C)(C=O)O2	6.03 µM	> 100 µM	> 100 µM	> 100 µM	> 100 µM	> 100 µM	51.1 µM	> 100 µM	18.2 µM	> 100 µM	> 100 µM	> 100 µM	> 100 µM	> 100 µM	> 100 µM	> 100 µM	> 100 µM	> 100 µM	21 µM	> 100 µM
[C-]#[N+][C@]12C(=O)[C@H](CCC1(C)C)C(C)(C)[C@H]1C(=O)N(C)c3cccc2c31	3.73 µM	> 100 µM	17.6 µM	> 100 µM	> 100 µM	> 100 µM	18.6 µM	> 100 µM			> 100 µM	> 100 µM	64.3 µM	> 100 µM	68.5 µM	> 100 µM	> 100 µM	> 100 µM	10.3 µM	> 100 µM
COc1cc(C2=NN(c3ccc(S(N)(=O)=O)cc3)C(c3ccc(Cl)cc3)C2)cc(OC)c1OC (stereo unspecified)	3.41 µM	> 100 µM	4.15 µM	> 100 µM	3.05 µM	> 100 µM	4.49 µM	> 100 µM	8.09 µM	> 100 µM	7.25 µM	> 100 µM	2.22 µM	> 100 µM	3.58 µM	> 100 µM	3.95 µM	> 100 µM	4.81 µM	> 100 µM
O=C(Nc1ccccc1O)c1ccc(CNC(=O)c2sccc2Nc2ccnc(C(F)(F)F)c2)cc1	4.61 µM	15.2 µM	6.21 µM	27 µM	3.28 µM	15.6 µM	5.36 µM	20.4 µM	14 µM	32.7 µM	8.07 µM	45 µM	4.96 µM	44.5 µM	12.7 µM	> 100 µM	9.05 µM	27.4 µM	1.78 µM	32.7 µM
O=C1C(=O)c2ccccc2C(O)=C1CC=C(Cl)Cl	1.15 µM and 2.96 µM	29.7 µM and 44 µM and > 100 µM	6.4 µM	141 µM and > 100 µM	13.8 µM and 13.7 µM	76.9 µM and 203 µM and 97.9 µM	6.98 µM and 4.68 µM	> 80.5 µM and 231 µM and > 100 µM	4.93 µM and 8.27 µM	119 µM and > 100 µM	8.26 µM and 24.2 µM and 14.4 µM	39.9 µM and 135 µM and 91.1 µM	21.3 µM and 6.06 µM	65 µM and 169 µM and > 100 µM	14 µM and 13.3 µM	194 µM and > 100 µM	3.59 µM	> 52.8 µM and 119 µM and 56.2 µM	0.828 µM and 4.68 µM	27.1 µM and 103 µM and > 100 µM
O=C(Nc1cccc(O)c1)c1cccc(NC2=C(Cl)C(=O)N(Cc3ccccc3)C2=O)c1	18.1 µM	32 µM	22.2 µM	49.7 µM	14.8 µM	42.3 µM	6.53 µM	29.9 µM	1.19 µM	6.11 µM	18.7 µM	44.4 µM	18.4 µM	36.3 µM	12.7 µM	43.5 µM	11.9 µM	31.9 µM	1.04 µM	> 100 µM
COc1ccc(Cl)cc1NC(=O)c1cccc([N+](=O)[O-])c1O		43.3 µM		> 95.6 µM		53.2 µM		> 100 µM		> 92.5 µM		64.9 µM		> 88.3 µM		70.2 µM		> 100 µM		> 100 µM
CC(C)(C)OC(=O)CN1CCc2c(sc3ncnc(N/N=C/c4cccc5ccccc45)c23)C1	1.65 µM	6.73 µM	3.47 µM	12.3 µM	1.56 µM	6.93 µM	1.8 µM	7.96 µM	1.87 µM	7.4 µM	4.28 µM	12.8 µM	1.04 µM	14.4 µM	1.42 µM	16 µM	2.64 µM	9.21 µM	1.26 µM	9.39 µM
O=S(=O)(O)c1cc(N=Nc2cc(S(=O)(=O)O)c3cccnc3c2O)ccc1/C=C/c1ccc(N=Nc2cc(S(=O)(=O)O)c3cccnc3c2O)cc1S(=O)(=O)O		> 100 µM		> 100 µM		> 31.6 µM		> 100 µM		> 100 µM		> 100 µM		> 100 µM		> 100 µM		> 100 µM		48.3 µM
Oc1c(I)cc(-c2nc3ccccc3s2)cc1CN(Cc1ccccn1)Cc1ccccn1	0.494 µM	12.4 µM	0.668 µM	27.6 µM	1.08 µM	5.61 µM	0.402 µM	3.32 µM	0.517 µM	9.06 µM	0.269 µM	3.16 µM			1.61 µM	93 µM	0.217 µM	10.4 µM	0.327 µM	> 100 µM
CC(=O)c1cc2c(c3ccsc13)-c1ccccc1CC2	20.3 µM	> 100 µM	58.4 µM	> 100 µM	28.6 µM	> 100 µM	33.7 µM	> 100 µM	36 µM	> 100 µM	38 µM	> 100 µM	> 100 µM	> 100 µM	2.17 µM	44.6 µM	16.4 µM	67.1 µM		
NC(=S)N/N=C\c1nccc2c(N)cccc12	0.356 µM	> 46 µM	0.454 µM	> 100 µM	0.248 µM	17.1 µM	0.476 µM	> 100 µM	0.219 µM		0.282 µM	1.08 µM	0.139 µM	87.5 µM	1.68 µM	> 100 µM	0.471 µM	> 100 µM	0.235 µM	> 100 µM
CC(C)(C)[Si](C)(C)OCC1C=CC(n2cnc3c(N)ncnc32)O1 (stereo unspecified)		50.6 µM		> 100 µM		73 µM		> 95.8 µM		> 100 µM		> 69.6 µM		> 81 µM		> 100 µM		> 73.6 µM		44.4 µM
O=C(NNS(=O)(=O)c1ccc(F)cc1)c1cccnc1Nc1ccc(Cl)cc1Cl	30.3 µM	> 100 µM	22.1 µM	57.8 µM	11.4 µM	27.6 µM	29.1 µM	> 100 µM			29.6 µM	96.9 µM	25.5 µM	> 100 µM	27.9 µM	> 100 µM	28.8 µM	> 100 µM	22.9 µM	> 100 µM
O=[N+]([O-])/C=C\c1c[nH]c2ccc(OCc3ccccc3)cc12		3.27 µM				6.73 µM		7.31 µM		15.8 µM		13.4 µM				7.24 µM		18 µM		> 100 µM
